# Assay: Stability testing of the herbicides mixture suspension
# Assay type: physicochemical
# Details: 40° C. for 30 days
# Method: Stability testing of the herbicides mixture suspension: The commercial solutions containing Glyphosate or Round-Up are mixed together, and tested along with the stable Round-Up and Glyphosate mixed suspensions of the present invention. The liquids placed in an oven at 40° C. for 30 days. The remaining activities of the herbicides in the samples are measured following standard protocols.
structure (smiles),measurement,value
O=C(O)CNCP(=O)(O)O [Glyphosate],"remaining activity of the herbicide, free commercial solutions mixed together",No Glyphosate activity is detected
